Converted amounts (≈) assume the structure as drawn. Like-named read-outs stand apart in the source and are kept apart here.
Key:
[1] = tested on: E. coli; experiment: Minimum inhibitory concentration, broth microdilution (CLSI); format: cell-based, Escherichia coli
Procedure: (§1) The antimicrobial activity of the compounds was evaluated by a broth microdilution assay using the procedure described by CLSI. Briefly, bacteria were grown to mid-log phase in Muller Hinton broth (MHB) with shaking at 120 rpm and incubated at 37 °C for 12–16 h. Following incubation, bacteria were washed three times in PBS pH 7.4 at 3500 g for 10 min. After washing, bacteria were diluted with fresh MHB. The turbidity of the bacterial suspensions was adjusted so that OD660nm was 0.1, which gave 1 × 10^8 CFU/mL, and then further diluted to achieve 5 × 10^5 CFU/mL as a final bacterial concentration. Each compound was diluted (250–3.9 µM) through two-fold dilution. Wells in microtiter plates were loaded with 100 µL of inoculum containing 5 × 10^5 CFU/mL bacteria. Wells without any compound and containing only bacteria were used as negative controls (i.e., no inhibition of growth). Wells with media only were set as blank. The microtiter plate was wrapped with paraffin to prevent evaporation and incubated with shaking at 120 rpm and 37 °C for 18–24 h. After incubation, spectrophotometric readings were taken. The well without any bacterial growth and showing zero spectrophotometric reading was regarded as the MIC of the compounds.

[2] = tested on: S. aureus; experiment: as above; format: cell-based, Staphylococcus aureus
Procedure: as §1

[3] = tested on: MRC-5 human fibroblasts; experiment: Toxicity assay, Alamar Blue; format: cell-based; details: for IC50: MRC5, MRC-5 human fibroblasts, 72 h drug incubation, Alamar Blue
Procedure: Normal human lung fibroblasts MRC-5 were cultured in minimal essential medium (MEM, Invitrogen) supplemented with 10% foetal calf serum (FCS), 1% L-glutamine–penicillin–streptomycin, 2% sodium bicarbonate, 1% non-essential amino acids (NEAA), and 1% sodium pyruvate. The cell line was maintained at 37 °C in 5% CO2 as an adherent monolayer and was passaged upon reaching confluence by standard cell culture techniques. MRC-5 cells were seeded at 2 × 10^4 cells per well in 96-well plates to ensure full confluence (quiescence). Cells were treated for 24 h after seeding with 0.1 to 1000 μM of compounds. After 72 h of drug incubation, the treated media was replaced with fresh media containing 10% Alamar Blue and the cells were incubated for another 6 h. The metabolic activity was detected by spectrophotometric analysis by assessing the absorbance of Alamar blue as previously described by Pasquier et al. Cell proliferation was determined and expressed as a percentage of untreated control cells. The determination of IC50 values was performed using GraphPad Prism 6 (San Diego, CA, USA). Each experiment was performed in triplicate and was repeated in three independent experiments.

[4] = Escherichia coli, broth microdilution in MHB, 18–24 h
[5] = Staphylococcus aureus, broth microdilution in MHB, 18–24 h
[6] = Escherichia coli, Table 2, lysine derivative versus parent, read-out: MIC E. coli
[7] = broth microdilution in MHB, 18–24 h
[8] = Staphylococcus aureus, Table 2, lysine derivative versus parent, read-out: MIC S. aureus

Compound | MIC90 [1, 4] | MIC90 [2, 5] | IC50 [3] | other results
NCCNC(=O)[C@H](Cc1c[nH]c2ccccc12)NC(=O)c1cc(Br)ccc1NC(=O)Cc1cccc2ccccc12 [Compound 12b, (S)-N-(1-((2-aminoethyl)amino)-3-(1H-indol-3-yl)-1-oxopropan-2-yl)-5-bromo-2-(2-(naphthalen-1-yl)acetamido)benzamide] | > 125 µM | 62.5 µM (≈ 38.3 µg/mL) | – | MIC ([2]; Staphylococcus aureus, broth microdilution in MHB, 18–24 h, read-out: MIC90 S. aureus): 15.6 µM (≈ 9.56 µg/mL)
COc1ccc2ccccc2c1C(=O)Nc1ccc(Br)cc1C(=O)N[C@@H](Cc1c[nH]c2ccccc12)C(=O)NCCN [Compound 12c, (S)-N-(2-((1-((2-aminoethyl)amino)-3-(1H-indol-3-yl)-1-oxopropan-2-yl)carbamoyl)-4-bromophenyl)-2-methoxy-1-naphthamide] | > 125 µM | 15.6 µM (≈ 9.81 µg/mL) | – | –
COc1cc2ccccc2cc1C(=O)Nc1ccc(Br)cc1C(=O)N[C@@H](Cc1c[nH]c2ccccc12)C(=O)NCCN [Compound 12d, (S)-N-(2-((1-((2-aminoethyl)amino)-3-(1H-indol-3-yl)-1-oxopropan-2-yl)carbamoyl)-4-bromophenyl)-3-methoxy-2-naphthamide] | > 125 µM | 7.8 µM (≈ 4.9 µg/mL) | 18.7 µM | –
NCCNC(=O)[C@H](Cc1c[nH]c2ccccc12)NC(=O)c1cc(Br)ccc1NC(=O)c1ccc2ccccc2n1 [Compound 12e, (S)-N-(2-((1-((2-aminoethyl)amino)-3-(1H-indol-3-yl)-1-oxopropan-2-yl)carbamoyl)-4-bromophenyl)quinoline-2-carboxamide] | > 125 µM | 15.6 µM (≈ 9.35 µg/mL) | – | –
NCCNC(=O)[C@H](Cc1c[nH]c2ccccc12)NC(=O)c1cc(Br)ccc1NC(=O)c1cc2ccccc2[nH]1 [Compound 12f, (S)-N-(2-((1-((2-aminoethyl)amino)-3-(1H-indol-3-yl)-1-oxopropan-2-yl)carbamoyl)-4-bromophenyl)-1H-indole-2-carboxamide] | > 125 µM | 125 µM (≈ 73.4 µg/mL) | – | –
NCCNC(=O)[C@H](Cc1c[nH]c2ccccc12)NC(=O)c1cc(Br)ccc1NC(=O)c1cccs1 [Compound 12g, (S)-N-(2-((1-((2-aminoethyl)amino)-3-(1H-indol-3-yl)-1-oxopropan-2-yl)carbamoyl)-4-bromophenyl)thiophene-2-carboxamide] | > 125 µM | 125 µM (≈ 69.3 µg/mL) | – | –
NCCNC(=O)[C@H](Cc1c[nH]c2ccccc12)NC(=O)c1cc(Br)ccc1NC(=O)c1ccsc1 [Compound 12h, (S)-N-(2-((1-((2-aminoethyl)amino)-3-(1H-indol-3-yl)-1-oxopropan-2-yl)carbamoyl)-4-bromophenyl)thiophene-3-carboxamide] | > 125 µM | 125 µM (≈ 69.3 µg/mL) | – | –
NCCNC(=O)[C@H](Cc1c[nH]c2ccccc12)NC(=O)c1cc(Br)ccc1NC(=O)c1ccccc1-c1ccccc1 [Compound 12i, (S)-N-(2-((1-((2-aminoethyl)amino)-3-(1H-indol-3-yl)-1-oxopropan-2-yl)carbamoyl)-4-bromophenyl)-[1,1′-biphenyl]-2-carboxamide] | > 125 µM | 15.6 µM (≈ 9.74 µg/mL) | 22.9 µM | –
NCCNC(=O)[C@H](Cc1c[nH]c2ccccc12)NC(=O)c1cc(Br)ccc1NC(=O)c1cccc(-c2ccccc2)c1 [Compound 12j, (S)-N-(2-((1-((2-aminoethyl)amino)-3-(1H-indol-3-yl)-1-oxopropan-2-yl)carbamoyl)-4-bromophenyl)-[1,1′-biphenyl]-3-carboxamide] | > 125 µM | 3.9 µM (≈ 2.44 µg/mL) | 13.5 µM | MIC [1, 6]: > 125 µM; MIC90 [1, 7]: >125 µM; MIC [2, 8]: 3.9 µM (≈ 2.44 µg/mL)
NCCNC(=O)[C@H](Cc1c[nH]c2ccccc12)NC(=O)c1cc(Br)ccc1NC(=O)c1ccc(-c2ccccc2)cc1 [Compound 12k, (S)-N-(2-((1-((2-aminoethyl)amino)-3-(1H-indol-3-yl)-1-oxopropan-2-yl)carbamoyl)-4-bromophenyl)-[1,1′-biphenyl]-4-carboxamide] | > 125 µM | 7.8 µM (≈ 4.87 µg/mL) | 12.7 µM | MIC [1, 6]: > 125 µM; MIC [2, 8]: 7.8 µM (≈ 4.87 µg/mL)
NCCCNC(=O)[C@H](Cc1c[nH]c2ccccc12)NC(=O)c1cc(Br)ccc1NC(=O)c1ccc2ccccc2c1 [Compound 13a, (S)-N-(2-((1-((3-aminopropyl)amino)-3-(1H-indol-3-yl)-1-oxopropan-2-yl)carbamoyl)-4-bromophenyl)-2-naphthamide] | > 125 µM | 15.6 µM (≈ 9.56 µg/mL) | – | –
NCCCNC(=O)[C@H](Cc1c[nH]c2ccccc12)NC(=O)c1cc(Br)ccc1NC(=O)Cc1cccc2ccccc12 [Compound 13b, (S)-N-(1-((3-aminopropyl)amino)-3-(1H-indol-3-yl)-1-oxopropan-2-yl)-5-bromo-2-(2-(naphthalen-1-yl)acetamido)benzamide] | > 125 µM | 62.5 µM (≈ 39.2 µg/mL) | – | –
COc1ccc2ccccc2c1C(=O)Nc1ccc(Br)cc1C(=O)N[C@@H](Cc1c[nH]c2ccccc12)C(=O)NCCCN [Compound 13c, (S)-N-(2-((1-((3-aminopropyl)amino)-3-(1H-indol-3-yl)-1-oxopropan-2-yl)carbamoyl)-4-bromophenyl)-2-methoxy-1-naphthamide] | 62.5 µM (≈ 40.2 µg/mL) | 15.6 µM (≈ 10 µg/mL) | 20.5 µM | –
NCCCNC(=O)[C@H](Cc1c[nH]c2ccccc12)NC(=O)c1cc(Br)ccc1NC(=O)c1ccc2ccccc2n1 [Compound 13e, (S)-N-(2-((1-((3-aminopropyl)amino)-3-(1H-indol-3-yl)-1-oxopropan-2-yl)carbamoyl)-4-bromophenyl)quinoline-2-carboxamide] | > 125 µM | > 125 µM | – | –
CC(C)(C)c1ccc(-c2ccc(N)c(C(=O)N[C@@H](Cc3c[nH]c4ccccc34)C(=O)NCCN)c2)cc1 [Compound 16a, (S)-4-amino-N-(1-((2-aminoethyl)amino)-3-(1H-indol-3-yl)-1-oxopropan-2-yl)-4′-(tert-butyl)-[1,1′-biphenyl]-3-carboxamide] | > 125 µM | 7.8 µM (≈ 3.88 µg/mL) | 34.1 µM | –
NCCNC(=O)[C@H](Cc1c[nH]c2ccccc12)NC(=O)c1cc(-c2ccc(F)cc2)ccc1N [Compound 16c, (S)-4-amino-N-(1-((2-aminoethyl)amino)-3-(1H-indol-3-yl)-1-oxopropan-2-yl)-4′-fluoro-[1,1′-biphenyl]-3-carboxamide] | > 125 µM | 31.2 µM (≈ 14.3 µg/mL) | 34 µM | –
NCCNC(=O)[C@H](Cc1c[nH]c2ccccc12)NC(=O)c1cc(-c2ccc(C(F)(F)F)cc2)ccc1N [Compound 16d, (S)-4-amino-N-(1-((2-aminoethyl)amino)-3-(1H-indol-3-yl)-1-oxopropan-2-yl)-4′-(trifluoromethyl)-[1,1′-biphenyl]-3-carboxamide] | > 125 µM | 15.6 µM (≈ 7.95 µg/mL) | – | –
NCCNC(=O)[C@H](Cc1c[nH]c2ccccc12)NC(=O)c1cc(Br)ccc1N [Compound 17, (S)-2-amino-N-(1-((2-aminoethyl)amino)-3-(1H-indol-3-yl)-1-oxopropan-2-yl)-5-bromobenzamide] | > 125 µM | > 125 µM | – | –
NCCCC[C@H](N)C(=O)NCCNC(=O)[C@H](Cc1c[nH]c2ccccc12)NC(=O)c1cc(Br)ccc1NC(=O)c1ccc(-c2ccccc2)cc1 [Compound 19c, N-(4-bromo-2-(((S)-1-((2-((S)-2,6-diaminohexanamido)ethyl)amino)-3-(1H-indol-3-yl)-1-oxopropan-2-yl)carbamoyl)phenyl)-[1,1′-biphenyl]-4-carboxamide] | 62.5 µM (≈ 47 µg/mL) | 15.6 µM (≈ 11.7 µg/mL) | 150 µM | MIC [1, 6]: 62.5 µM (≈ 47 µg/mL); MIC ([1]; Escherichia coli, broth microdilution in MHB, 18–24 h, read-out: MIC90 E. coli): 15.6 µM (≈ 11.7 µg/mL); improvement in antibacterial activity against E. coli compared to the parent compound ([1]; versus parent 12a, 12j): > 16 fold; toxicity to mammalian cells (in words) ([3]; at 31.2 µM): non-toxic; MIC [2, 8]: 15.6 µM (≈ 11.7 µg/mL)
Colistin [reference compound] | – | – | – | MIC90 [1, 7]: 1 µM; MIC90 [2, 7]: 125 µM

Reference: publication PMC10044445, “Tuning the Anthranilamide Peptidomimetic Design to Selectively Target Planktonic Bacteria and Biofilm” (Antibiotics, 2023)
